In US20130288982A1, “THERAPEUTIC AGENT FOR PULMONARY SMALL CELL CARCINOMA” (TOKYO WOMEN'S MEDICAL UNIVERSITY, priority 2009, published 2013):
No end group written: not given here.

How the values were obtained:
[1] = test system: human pulmonary small cell carcinoma cell line RERF-LC-MA; assay: Inhibition of proliferation of cancer cells (XTT based Cell Proliferation Kit), RERF-LC-MA; settings: peptide added at 5 μg/mL or 10 μg/m, incubation at 37° C. for three days; p=0.031 vs scrambled peptide control
Procedure: (§1) The human pulmonary small cell carcinoma cell line RERF-LC-MA, the human prostate cancer cell line PC-3, and the human breast cancer cell line MCF-7 were used as the cancer cells.
(§2) A 96-well plate was inoculated with the above-mentioned cells at a density of 0.6×10^3 to 1.0×10^3 cells per well, and then cultured at 37° C. for three days. Then, cell proliferation was quantified using the Cell Proliferation Kit (XTT based).
(§3) Next, the above-mentioned peptides were separately added to the culture system at concentrations of 0 μg/mL, 1 μg/mL, 5 μg/mL and 10 μg/m, followed by incubation at 37° C. for three days. After completion of the incubation, the number of cancer cells was counted.

[2] = test system: human breast cancer cell line MCF-7; assay: Inhibition of proliferation of cancer cells (XTT based Cell Proliferation Kit), MCF-7; settings: peptide added, incubation at 37° C. for three days; data not shown
Procedure: as §1, §2, §3

[3] = test system: human prostate cancer cell line PC-3; assay: Inhibition of proliferation of cancer cells (XTT based Cell Proliferation Kit), PC-3; settings: peptide added, incubation at 37° C. for three days; data not shown
Procedure: as §1, §2, §3

[4] = test system: mRNA of the VEGFR1, RECK, MMP9 and MMP14 in the osteoclasts; assay: mRNA expression of molecule groups in osteoclasts by qPCR; assay type: cell-based; settings: peptide A vs scrambled peptide, 24 hours after addition
Procedure: (§4) The peptides were added to the cancer cells and osteoclasts to determine a change in the expression of each molecular group resulting from the interaction between the peptide and the cancer cells or between the peptide and osteoclasts by confirming the expression of mRNA using quantitative polymerase chain reaction (qPCR).
The following molecule groups were used which are expressed in the cancer cells and/or osteoclasts as reported in Yoko Morioka et al.: “The roles of MMPs and RECK in cancer progression”, Cell Technology. Vol. 28, No. 7, 659-679 (2009).
(§5) The cancer cells and the osteoclasts were separately inoculated into a 6-well plate at a density of 1×10^5 to 2×10^5 cells per well. Twenty-four hours later, the medium was changed to D-MEM (1% FCS, 2 mM L-glu). Another 24 hours later, the medium was changed, and at the same time the peptide A or the control was added. After 24 hours, the cells were collected and extraction of the RNA was conducted.

[5] = test system: GAPDH mRNA in RERF-LC-MA cell; assay: GAPDH mRNA expression in cancer cells by qPCR; assay type: cell-based, human; settings: RERF-LC-MA cell (only in this cancer cell line), 24 hours after addition
Procedure: as §4
As the cancer cells, those as shown in Example 1 were used.
as §5

GQNGSTPDGSTHFPSWEMAANEPLKTHRE [peptide A, 29-mer peptide derived from the TCTA protein, containing extracellular domain GQN]
proliferation of the RERF-LC-MA cells (reduced to) [1]: about 85% | inhibitory effect on proliferation of the MCF-7 cells [2]: almost no inhibitory effect | inhibitory effect on proliferation of the PC-3 cells [3]: almost no inhibitory effect | expression of mRNA of MMP9 in the osteoclasts [4]: no significant difference | expression of mRNA of MMP14 in the osteoclasts [4]: no significant difference | expression of mRNA of RECK in the osteoclasts [4]: no significant difference | expression of mRNA of VEGFR1 in the osteoclasts [4]: no significant difference | GAPDH mRNA expression [5]: reduced
